Results published in US7973162B2, “Modulators of muscarinic receptors” (Vertex Pharmaceuticals Incorporated, priority 2007, dated 2011).
pEC50: −log10 of the molar value.

Legend:
Assay type in all cases: cell-based
M1 muscarinic receptor = target: T1, M1 muscarinic receptor (Homo sapiens, UniProt P11229); experiment: Functional mobilization of intracellular calcium (FLIPR), M1-CHO cells; details: for Emax / M1 Efficacy: 100% efficacy = maximum response obtained with the Carbachol control; for pEC50: CHO cells expressing M1, calcium mobilization
T1 construct: expressed in transfected cells; host or cells: CHO (M1-CHO)
T1 sequence (P11229 1-460): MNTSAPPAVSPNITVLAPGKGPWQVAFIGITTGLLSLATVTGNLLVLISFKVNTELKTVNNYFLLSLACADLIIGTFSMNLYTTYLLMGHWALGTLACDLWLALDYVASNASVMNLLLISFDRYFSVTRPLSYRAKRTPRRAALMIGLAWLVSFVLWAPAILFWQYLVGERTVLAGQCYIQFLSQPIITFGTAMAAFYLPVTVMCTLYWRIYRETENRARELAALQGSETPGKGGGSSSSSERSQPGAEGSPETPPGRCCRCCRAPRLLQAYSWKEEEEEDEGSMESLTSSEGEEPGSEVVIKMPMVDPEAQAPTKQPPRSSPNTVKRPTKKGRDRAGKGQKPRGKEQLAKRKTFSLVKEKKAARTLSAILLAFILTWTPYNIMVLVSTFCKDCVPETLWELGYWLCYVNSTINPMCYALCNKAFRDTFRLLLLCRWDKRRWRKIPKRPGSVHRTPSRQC
Protocol: (§1) Functional Mobilization of Intracellular Calcium to Determine Muscarinic Receptor Activity:
(§2) CHO cells expressing muscarinic receptors (M1 to M5) are grown as monolayers in tissue culture flasks at 37° C. in a humidified atmosphere containing 5% CO2 and passaged every 3-5 days. The growth media is Dulbecco's modified eagles medium (DMEM, Gibco Cat# 12430-054), containing 25 mM Hepes and supplemented with Fetal Bovine Serum (Hyclone, cat #SH30071.03), 0.1 mM of MEM non-essential amino acids (GIBCO, Cat #11140-050), 1 mM MEM Sodium Pyruvate (GIBCO Cat #11360-070) and 100 units/ml of Penicillin G and 100 μg/ml of Streptomycin (GIBCO Cat #15140-122). The recombinant muscarinic receptor cell lines are grown under antibiotic pressure with media containing 25 μg/ml zeocin and 500 μg/ml G418 (M1-CHO), 4 μg/ml puromycin, 50 μg/ml zeocin and 2.5 μg/ml blasticidin (M2 and M4-CHO) or 50 μg/ml zeocin and 4 μg/ml puromycin (M3 and M5-CHO).
(§3) Cells are harvested at 80-90% confluence using Versene (GIBCO Cat #15040-066), collected by centrifugation and seeded 18-24 hrs prior to running the calcium assay at a density of 5,000-10,000 cells/well in […], clear-bottomed 384-well plates (BD Biocoat, poly-D-lysine, Cat#356663). The day of the experiment, the cells are washed with a plate washer (Bioteck Instruments, ELX 405) using bath1 buffer (140-mM NaCl, 4.5-mM KCl, 2-mM CaCl2, 1-mM MgCl2, 10-mM Hepes-Na, 10-mM Glucose, pH 7.4, with NaOH) containing 1 mM Probenecid. Next, the calcium dye Fluo-3 (25 μl/well of Fluo-3 AM at 4 μM, Molecular Probes F-1241, in Bath 1 buffer containing 1 mM Probenecid) is added to the 25 μl of Bath 1 remaining in each well after the plate wash and the dye is loaded at 37° C. in the tissue culture incubator for 60-90 min. The fluorescent dye is removed using the plate washer with Bath 1 containing 1 mM Probenecid, leaving 25 μl/well of this solution after the wash. Alternatively, cells can be loaded with the calcium indicator from Molecular Devices (Calcium 3 Assay Reagents, Cat #R7181) adding 5 μl of a 5× solution dye in Bath 1 containing 1 mM Probenecid (10 ml per dye flask cat #R7182 to generate a solution 20×) to 20 μl of the same buffer. After loading for 60 min, the experiment can be run without having to remove the dye.
(§4) Compounds are prepared at a 2× fold concentration in a 96-well plate (round bottom, Costar Corning cat #3656), by reconstituting the pre-spotted compounds in bath 1 containing 1 mM probenecid. The final concentration DMSO is 0.5%, and the amount of DMSO is normalized across the assay plate. To determine an agonist action of the compounds on muscarinic receptors, the reconstituted compounds are added (25 μl compound/well) to the cell assay plate (containing 25 μl/well) using the multi-channel robotic system of the FLIPR 3 Instrument (Molecular Devices, Sunnyvale, Calif.). To determine a functional inhibitory action of the compounds on muscarinic receptors, the reconstituted compounds are added (25 μl compound/well) to the assay plate and pre-incubated for 15 min prior to adding 25 μl of Carbachol at 3× the EC80 for each muscarinic subtype. Alternatively, the compounds can be co-applied simultaneously with the agonist. In both assay modes, the fluorescence is recorded for 60 sec (excitation wavelength is […] and emission wavelength 540 nm) using the FLIPR 3 instrument.
(§5) The potency, efficacy and selectivity of the muscarinic compounds were evaluated by screening the compound activity across the whole family (M1 to M5 cells). Compounds were also screened for activity on other proteins such as other GPCRs and ion channels to determine selectivity on M4 receptors.
(§6) Examples of activities and efficacies of the muscarinic compounds of formulae (I, Ia, and Ib) on modulating M1 and M4 receptors are shown below in Table 3. […]

M2 muscarinic receptor = target: T2, M2 muscarinic receptor (Homo sapiens, UniProt P08172); experiment: Functional mobilization of intracellular calcium (FLIPR), M2-CHO cells; details: for Emax / M2 Efficacy: 100% efficacy = maximum response obtained with the Carbachol control; for pEC50: CHO cells expressing M2, calcium mobilization
T2 construct: expressed in transfected cells; host or cells: CHO (M2-CHO)
T2 sequence (P08172 1-466): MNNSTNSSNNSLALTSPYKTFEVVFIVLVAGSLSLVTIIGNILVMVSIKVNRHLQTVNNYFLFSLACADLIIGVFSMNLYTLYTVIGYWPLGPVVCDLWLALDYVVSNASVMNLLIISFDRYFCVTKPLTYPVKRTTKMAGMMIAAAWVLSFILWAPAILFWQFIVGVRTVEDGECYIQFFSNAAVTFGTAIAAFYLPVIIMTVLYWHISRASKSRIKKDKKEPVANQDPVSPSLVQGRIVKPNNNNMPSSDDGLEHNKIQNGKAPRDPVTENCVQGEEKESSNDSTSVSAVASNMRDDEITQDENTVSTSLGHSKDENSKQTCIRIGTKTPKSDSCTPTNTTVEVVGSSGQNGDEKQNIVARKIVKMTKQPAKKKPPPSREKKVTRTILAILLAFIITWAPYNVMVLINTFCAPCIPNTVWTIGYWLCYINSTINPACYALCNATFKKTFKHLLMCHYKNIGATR
Protocol: as §1, §2, §3, §4, §5, §6

M4 muscarinic receptor = target: T3, M4 muscarinic receptor (Homo sapiens, UniProt P08173); experiment: Functional mobilization of intracellular calcium (FLIPR), M4-CHO cells; details: for Emax / M4 Efficacy: 100% efficacy = maximum response obtained with the Carbachol control; for pEC50: CHO cells expressing M4, calcium mobilization
T3 construct: expressed in transfected cells; host or cells: CHO (M4-CHO)
T3 sequence (P08173 1-479): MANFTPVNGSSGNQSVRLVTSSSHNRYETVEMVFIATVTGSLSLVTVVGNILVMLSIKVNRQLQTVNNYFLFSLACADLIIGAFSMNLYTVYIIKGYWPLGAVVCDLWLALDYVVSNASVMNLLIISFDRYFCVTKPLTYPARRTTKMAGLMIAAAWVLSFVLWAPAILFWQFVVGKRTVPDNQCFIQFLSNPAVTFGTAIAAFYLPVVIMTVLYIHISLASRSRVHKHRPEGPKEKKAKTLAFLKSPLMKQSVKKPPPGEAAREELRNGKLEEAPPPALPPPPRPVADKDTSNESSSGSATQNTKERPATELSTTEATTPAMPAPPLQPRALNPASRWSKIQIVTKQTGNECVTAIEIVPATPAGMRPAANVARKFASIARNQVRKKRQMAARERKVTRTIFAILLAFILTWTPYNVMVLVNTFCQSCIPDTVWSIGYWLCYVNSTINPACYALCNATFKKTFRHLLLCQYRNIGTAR
Protocol: as §1, §2, §3, §4, §5, §6

M3 muscarinic receptor = target: T4, M3 muscarinic receptor (Homo sapiens, UniProt P20309); experiment: Functional mobilization of intracellular calcium (FLIPR), M3-CHO cells; details: for Emax / M3 Efficacy: 100% efficacy = maximum response obtained with the Carbachol control; for pEC50: CHO cells expressing M3, calcium mobilization
T4 construct: expressed in transfected cells; host or cells: CHO (M3-CHO)
T4 sequence (P20309 whole entry): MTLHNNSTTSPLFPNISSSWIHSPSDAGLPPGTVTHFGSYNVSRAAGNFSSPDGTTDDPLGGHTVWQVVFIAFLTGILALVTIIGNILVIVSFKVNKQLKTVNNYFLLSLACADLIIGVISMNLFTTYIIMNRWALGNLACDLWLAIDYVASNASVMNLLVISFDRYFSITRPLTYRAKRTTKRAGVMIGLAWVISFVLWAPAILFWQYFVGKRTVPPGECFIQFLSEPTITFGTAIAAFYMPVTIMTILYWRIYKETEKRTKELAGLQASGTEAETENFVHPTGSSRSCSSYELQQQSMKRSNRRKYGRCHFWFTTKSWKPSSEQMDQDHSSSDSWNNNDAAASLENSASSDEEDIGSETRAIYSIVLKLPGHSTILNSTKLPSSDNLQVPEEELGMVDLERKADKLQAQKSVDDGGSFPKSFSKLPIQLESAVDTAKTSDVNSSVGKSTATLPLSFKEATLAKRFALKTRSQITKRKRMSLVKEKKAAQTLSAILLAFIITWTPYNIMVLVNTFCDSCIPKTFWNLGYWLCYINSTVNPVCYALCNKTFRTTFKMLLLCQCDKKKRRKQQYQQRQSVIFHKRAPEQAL
Protocol: as §1, §2, §3, §4, §5, §6

Compound	Emax (M1 muscarinic receptor) [%]	pEC50 (M1 muscarinic receptor)	Emax (M2 muscarinic receptor) [%]	pEC50 (M2 muscarinic receptor)	Emax (M4 muscarinic receptor) [%]	pEC50 (M4 muscarinic receptor)	Emax (M3 muscarinic receptor) [%]	pEC50 (M3 muscarinic receptor)	M1 Efficacy (M1 muscarinic receptor)	M2 Efficacy (M2 muscarinic receptor)	M4 Efficacy (M4 muscarinic receptor)	M3 Efficacy (M3 muscarinic receptor)
CCOC(=O)N1CCC(N2CCC3(CC2)C[C@H]2CC(=O)N(C)[C@H]2c2ccccc23)CC1 [Compound 12]	25 to 100	> 5.70	25 to 100	> 5.70	25 to 100	> 5.70	< 25	< 5.30				
CCOC(=O)N1CCC(N2CCC3(CC2)C[C@H]2CC(=O)N(CC(=O)O)[C@H]2c2ccccc23)CC1 [Compound 13]	25 to 100	< 5.30	< 25	< 5.30	25 to 100	< 5.30	< 25	< 5.30				
c1ccc2c(c1)C1OCCC1CC21CCN(CC2CCCCC2)CC1 (stereo not shown) [Compound 14]	25 to 100	< 5.30	< 25	< 5.30	25 to 100	> 5.70	< 25	< 5.30				
CN1C(=O)C[C@@H]2CC3(CCN(C4CC5CCC(C5)C4)CC3)c3ccccc3[C@@H]21 (stereo partly shown) [Compound 15]	25 to 100	5.30 to 5.70	< 25	< 5.30	25 to 100	> 5.70	< 25	< 5.30				
COCCN1C(=O)C[C@@H]2CC3(CCN(C4CCCCC4)CC3)c3ccccc3[C@@H]21 [Compound 16]	< 25	< 5.30	< 25	< 5.30	25 to 100	> 5.70	< 25	< 5.30				
CCOC(=O)N1CCC(N2CCC3(CC2)C[C@H]2CC(=O)N[C@H]2c2ccccc23)CC1 [Compound 17]		> 5.70		> 5.70		> 5.70		< 5.30	++ (efficacy was calculated to be from 100% to 25%)	++ (efficacy was calculated to be from 100% to 25%)	++ (efficacy was calculated to be from 100% to 25%)	+ (efficacy was calculated to be less than 25%)
O=C1CC2CC3(CCN(CC4CCCCC4)CC3)c3ccccc3C2O1 (stereo not shown) [Compound 18]	25 to 100	> 5.70	25 to 100	< 5.30	25 to 100	> 5.70	< 25	< 5.30				
O=C1C[C@@H]2CC3(CCN(C4CCCCC4)CC3)c3ccccc3[C@@H]2N1 [Compound 19]		> 5.70		5.30 to 5.70		> 5.70		< 5.30	++ (efficacy was calculated to be from 100% to 25%)	++ (efficacy was calculated to be from 100% to 25%)	++ (efficacy was calculated to be from 100% to 25%)	+ (efficacy was calculated to be less than 25%)
O=C1CC2CC3(CCN(C4CCCCC4)CC3)c3ccccc3C2O1 (stereo not shown) [Compound 21]	25 to 100	> 5.70	25 to 100	< 5.30	25 to 100	> 5.70	< 25	< 5.30				
COCCN1C(=O)C[C@@H]2CC3(CCN(CC4CCCCC4)CC3)c3ccccc3[C@@H]21 [Compound 22]	25 to 100	5.30 to 5.70	< 25	< 5.30	25 to 100	> 5.70	< 25	< 5.30				
CN1C(=O)C[C@@H]2CC3(CCN(C4CCCCC4)CC3)c3ccccc3[C@@H]21 [Compound 23]	25 to 100	> 5.70	25 to 100	> 5.70	25 to 100	> 5.70	< 25	< 5.30				
